# Measurements published in US20080146626A1, “USE OF EPOTHILONES IN THE TREATMENT OF OSTEOPOROSIS AND RELATED DISEASES” (priority 2006, published 2008).
# Several values for one entry are separate records, joined by “and”; a condition that tells them apart may be missing. Identical values can stand only once.
# B1: OPG: Osteoprotegerin, reference inhibitor of osteoclast differentiation (PeproTech 450-14) (protein, UniProt O00300 22-401, looked up)
# Tumor necrosis factor …: ETFPPKYLHYDEETSHQLLCDKCPPGTYLKQHCTAKWKTVCAPCPDHYYTDSWHTSDECLYCSPVCKELQYVKQECNRTHNRVCECKEGRYLEIEFCLKHRSCPPGFGVVQAGTPERNTVCKRCPDGFFSNETSSKAPCRKHTNCSVFGLLLTQKGNATHDNICSGNSESTQKCGIDVTLCEEAFFRFAVPTKFTPNWLSVLVDNLPGTKVNAESVERIKRQHSSQEQTFQLLKLWKHQNKDQDIVKKIIQDIDLCENSVQRHIGHANLTFEQLRSLMESLPGKKVGAEDIEKTIKACKPSDQILKLLSLWRIKNGDQDTLKGLMHALKHSKTYHFPKTVTQSLKKTIRFLHSFTMYKLYQKLFLEMIGNQVQSVKISCL
# How the values were obtained:
# human osteoclasts [1] = assay: osteoclast activity assay (bone resorption on bovine bone slices, CTX/TRACP 5b); assay type: cell-based; conditions: for concentration of CTX released from bone collagen into the culture medium: resorption phase days 7-10
# Procedure: The objective of this study is to investigate the effects of selected test compounds selected on resorbing activity of human osteoclasts in vitro. Bone resorption is studied using a model where human osteoclast precursor cells derived from bone marrow are cultured for 7 days on bovine bone slices and allowed to differentiate into bone-resorbing osteoclasts. At day 7, the culture medium is changed, the test compounds are added, and the formed mature osteoclasts are allowed to resorb bone in an additional 3-day culture period. Tartrate-resistant acid phosphatase isoform 5b activity (TRACP 5b) is measured from the culture medium collected at day 7 as an index of the number of osteoclasts formed in each well during the differentiation period. After the totally 10 days culture period, C-terminal cross-linked telopeptides of type I collagen (CTX) are quantitated from the culture medium as an index of bone resorption. The results are expressed as the resorption index (CTX at day 10/TRACP 5b at day 7), which describes the mean activity of a single osteoclast. In each test, a baseline group without test compounds is included to obtain a baseline value. […] The test system can also be modified by adding the test compounds at the beginning of the culture period to study if the test compounds affect osteoclast differentiation. Osteoprotegerin is used as a reference inhibitor of osteoclast differentiation in such cultures.
# Used herein is a method where osteoclast precursor cells derived from human bone marrow are cultured on bovine bone slices. The cells are first allowed to differentiate into mature bone-resorbing osteoclasts, and the formed osteoclasts are then allowed to resorb bone. The system is ideally suitable for determining the effects of test compounds on bone resorption in vitro. Test compounds are added into the cell cultures after the differentiation period, and their effect on the resorbing activity of mature osteoclasts is determined.
# (§1) The bone resorption assay is performed according to the above described Standard Operation Procedure. Shortly, human bone marrow-derived stem cells are suspended to culture medium and allowed to attach to bovine bone slices. The bone slices are transferred into 96-well tissue culture plates containing culture medium with appropriate amounts of important growth factors favoring osteoclast differentiation, including M-CSF, RANK-ligand and TGF-beta. The cells are incubated in a CO2 incubator in humidified atmosphere of 95% air and 5% carbon dioxide at 37° C. At day 7 when osteoclast differentiation is completed, the culture medium is replaced with culture medium containing conditions favoring osteoclast activity, and the test compounds are added. The cell culture is continued for an additional three days, during which the formed mature osteoclasts are allowed to resorb bone in the presence of vehicle, control inhibitor (E64) or test compounds at different concentrations. Tartrate-resistant acid phosphatase isoform 5b activity (TRACP 5b) is measured from the culture medium collected at day 7 using the BoneTRAP® assay (SBA-Sciences, Oulu, Finland). Medium TRACP 5b activity describes the number of osteoclasts formed in each well during the differentiation period. At the end of the culture period, C-terminal cross-linked telopeptides of type I collagen (CTX) released from the bone slices are quantitated as an index of bone resorption using CrossLaps® for culture assay (Nordic Bioscience, Herlev, Denmark). The results are expressed as the resorption index (CTX at day 10/TRACP 5b at day 7), which describes the mean activity of a single osteoclast. When necessary, the ToxiLight® assay (Cambrex, East Rutherford, N.J., USA) is used to detect cytotoxic effects of test compounds.
# Two separate experiments were performed in this study, an osteoclast differentiation assay and an osteoclast activity assay.
# human osteoclasts [2] = assay: cytotoxicity in human osteoclast activity assay (luminescence released from dying cells); conditions: day 10; for Cytotoxicity, % compared with baseline group: baseline mean = 100%
# Procedure: as §1
# Two separate experiments were performed in this study, an osteoclast differentiation assay and an osteoclast activity assay. In the osteoclast differentiation assay, osteoclast precursor cells were cultured for 7 days in the presence of the test compound, and TRACP 5b released into the culture medium was determined at day 7 as an index of the number of osteoclasts formed. Cytotoxicity was determined by quantitating the amount of dying cells from the culture medium at day 2. In the osteoclast activity assay, the test compounds were added after osteoclast differentiation was completed at day 7, and the mature osteoclasts were cultured for an additional 3 days, allowing them to resorb bone. […] Medium CTX was measured at day 10 to quantitate bone resorption during days 7-10, and the results are expressed as the resorption index CTX at day 10/TRACP 5b at day 7, which describes the mean resorbing activity of a single osteoclast. Cytotoxicity was determined by quantitating the amount of dying cells from the culture medium at day 10.
# The test compounds were added after osteoclast differentiation was completed at day 7, and the mature osteoclasts were cultured for an additional 3 days, allowing them to resorb bone. […] Medium CTX was measured at day 10 to quantitate bone resorption during days 7-10, and the results are expressed as the resorption index CTX at day 10/TRACP 5b at day 7, which describes the mean osteoclast activity. Cytotoxicity was determined by quantitating the amount of dying cells from the culture medium at day 10.
# [3] = tested on: human osteoclast precursor cells derived from bone marrow; assay: osteoclast differentiation assay (medium TRACP 5b at day 7); assay type: cell-based
# Procedure: The objective of this study is to investigate the effects of selected test compounds selected on resorbing activity of human osteoclasts in vitro. Bone resorption is studied using a model where human osteoclast precursor cells derived from bone marrow are cultured for 7 days on bovine bone slices and allowed to differentiate into bone-resorbing osteoclasts. […] In each test, a baseline group without test compounds is included to obtain a baseline value. […] The test system can also be modified by adding the test compounds at the beginning of the culture period to study if the test compounds affect osteoclast differentiation. Osteoprotegerin is used as a reference inhibitor of osteoclast differentiation in such cultures.
# Appropriate dilutions were made from the stock solution to obtain the desired test concentrations (0.1 nM, 1 nM and 10 nM in osteoclast differentiation assay and 1 nM, 10 nM and 100 nM in osteoclast activity assay).
# [4] = Homo sapiens, Osteoclast, read-out: Resorbing activity, % of activity compared with baseline group
# [5] = 1.0 μM E64, Mean of 6 replicates
molecule,measurement,setting,value
"CC(=O)O[C@H]1C(=O)[C@@]2(C)[C@H]([C@H](OC(=O)c3ccccc3)[C@]3(O)C[C@H](OC(=O)[C@H](O)[C@@H](NC(=O)c4ccccc4)c4ccccc4)C(C)=C1C3(C)C)[C@]1(OC(C)=O)CO[C@@H]1C[C@@H]2O [Paclitaxel, paclitaxel, reference compound]",activity at 0.0025 µM,human osteoclasts [1]; [4],109%
same,activity at 0.005 µM,human osteoclasts [1]; [4],98%
same,activity at 0.01 µM,human osteoclasts [1]; [4],87%
same,activity at 0.02 µM,human osteoclasts [1]; [4],95%
same,activity at 0.05 µM,human osteoclasts [1]; [4],64%
same,activity at 0.1 µM,human osteoclasts [1]; [4],57%
same,activity at 0.2 µM,human osteoclasts [1]; [4],72%
same,"Cytotoxicity, % compared with baseline group",human osteoclasts [2]; 2.5 nM,121%
same,"Cytotoxicity, % compared with baseline group",human osteoclasts [2]; 5 nM,99%
same,"Cytotoxicity, % compared with baseline group",human osteoclasts [2]; 10 nM,121%
same,"Cytotoxicity, % compared with baseline group",human osteoclasts [2]; 20 nM,116%
same,"Cytotoxicity, % compared with baseline group",human osteoclasts [2]; 50 nM,131%
same,"Cytotoxicity, % compared with baseline group",human osteoclasts [2]; 100 nM,120%
same,"Cytotoxicity, % compared with baseline group",human osteoclasts [2]; 200 nM,125%
"CC(C)C[C@H](NC(=O)[C@H]1O[C@@H]1C(=O)O)C(=O)NCCCCN=C(N)N [Compound E64, reference compound]",resorption index CTX at day 10/TRACP 5b at day 7,human osteoclasts [1]; [5],0.45
same,concentration of CTX released from bone collagen into the culture medium,human osteoclasts [1]; [5],8.44 nM
same,concentration of CTX released from bone collagen into the culture medium,"human osteoclasts [1]; 1.0 μM E64, single replicate",9.13 nM and 10.96 nM and 7.91 nM and 7.78 nM and 9.39 nM and 5.45 nM
same,resorption index CTX at day 10/TRACP 5b at day 7,"human osteoclasts [1]; 1.0 μM E64, single replicate",0.41 (2×) and 0.64 and 0.38 and 0.59 and 0.29
same,luminescence released from dying cells during the culture period,human osteoclasts [2]; [5],1594
same,luminescence released from dying cells during the culture period,"human osteoclasts [2]; 1.0 μM E64, single replicate",1979 and 1666 and 1489 and 1568 and 1355 and 1507
"C=CC[C@H]1C(=O)C(C)(C)[C@@H](O)CC(=O)O[C@H](c2ccc3sc(C)nc3c2)C[C@@H]2O[C@]2(C)CCC[C@H](C)[C@@H]1O [EPO-477, (1S,3S,7S,10R,11S,12S,16R)-7,11-dihydroxy-3-(2-methyl-benzothiazol-5-yl)-10-(prop-2-en-1-yl)-8,8,12,16-tetramethyl-4,17-dioxabicyclo[14.1.0]heptadecane-5,9-dione]",resorption index CTX at day 10/TRACP 5b at day 7,"human osteoclasts [1]; 1 nM, Mean of 6 replicates",3.31
same,concentration of CTX released from bone collagen into the culture medium,"human osteoclasts [1]; 1 nM, Mean of 6 replicates",60.34 nM
same,concentration of CTX released from bone collagen into the culture medium,"human osteoclasts [1]; 1 nM, single replicate",56.56 nM and 68.03 nM and 54.94 nM and 58.62 nM and 61.84 nM and 62.04 nM
same,resorption index CTX at day 10/TRACP 5b at day 7,"human osteoclasts [1]; 1 nM, single replicate",3.32 and 4.36 and 3.20 and 2.98 and 3.09 and 2.90
same,resorption index CTX at day 10/TRACP 5b at day 7,"human osteoclasts [1]; 10 nM, Mean of 6 replicates",1.14
same,concentration of CTX released from bone collagen into the culture medium,"human osteoclasts [1]; 10 nM, Mean of 6 replicates",20.16 nM
same,concentration of CTX released from bone collagen into the culture medium,"human osteoclasts [1]; 10 nM, single replicate",10.31 nM and 31.82 nM and 15.76 nM and 16.61 nM and 29.41 nM and 17.07 nM
same,resorption index CTX at day 10/TRACP 5b at day 7,"human osteoclasts [1]; 10 nM, single replicate",0.79 and 1.45 and 0.84 and 1.00 and 1.93 and 0.82
same,resorption index CTX at day 10/TRACP 5b at day 7,"human osteoclasts [1]; 100 nM, Mean of 6 replicates",0.78
same,concentration of CTX released from bone collagen into the culture medium,"human osteoclasts [1]; 100 nM, Mean of 6 replicates",13.45 nM
same,concentration of CTX released from bone collagen into the culture medium,"human osteoclasts [1]; 100 nM, single replicate",15.63 nM and 14.51 nM and 11.55 nM and 16.48 nM and 6.70 nM and 15.83 nM
same,resorption index CTX at day 10/TRACP 5b at day 7,"human osteoclasts [1]; 100 nM, single replicate",0.87 and 0.92 and 0.56 and 0.89 and 0.36 and 1.07
same,activity at 0.0025 µM,human osteoclasts [1]; [4],95%
same,activity at 0.005 µM,human osteoclasts [1]; [4],103%
same,activity at 0.0075 µM,human osteoclasts [1]; [4],109%
same,activity at 0.01 µM,human osteoclasts [1]; [4],79%
same,activity at 0.015 µM,human osteoclasts [1]; [4],45%
same,activity at 0.02 µM,human osteoclasts [1]; [4],62%
same,activity at 0.05 µM,human osteoclasts [1]; [4],38%
same,luminescence released from dying cells during the culture period,"human osteoclasts [2]; 1 nM, Mean of 6 replicates",1864
same,luminescence released from dying cells during the culture period,"human osteoclasts [2]; 1 nM, single replicate",2371 and 1802 and 1966 and 1781 and 1685 and 1577
same,"Cytotoxicity, % compared with baseline group",human osteoclasts [2]; 2.5 nM,98%
same,"Cytotoxicity, % compared with baseline group",human osteoclasts [2]; 5 nM,96%
same,"Cytotoxicity, % compared with baseline group",human osteoclasts [2]; 7.5 nM,91%
same,luminescence released from dying cells during the culture period,"human osteoclasts [2]; 10 nM, Mean of 6 replicates",1957
same,"Cytotoxicity, % compared with baseline group",human osteoclasts [2]; 10 nM,96%
same,luminescence released from dying cells during the culture period,"human osteoclasts [2]; 10 nM, single replicate",2193 and 2097 and 2126 and 1815 and 1909 and 1599
same,"Cytotoxicity, % compared with baseline group",human osteoclasts [2]; 15 nM,79%
same,"Cytotoxicity, % compared with baseline group",human osteoclasts [2]; 20 nM,78%
same,"Cytotoxicity, % compared with baseline group",human osteoclasts [2]; 50 nM,85%
same,luminescence released from dying cells during the culture period,"human osteoclasts [2]; 100 nM, Mean of 6 replicates",2666
same,luminescence released from dying cells during the culture period,"human osteoclasts [2]; 100 nM, single replicate",2837 and 2911 and 2428 and 2741 and 2112 and 2964
same,medium TRACP 5b activity at day 7,"[3]; 0.1 nM, Mean of 6 replicates, in U/L",18.24
same,medium TRACP 5b activity at day 7,"[3]; 0.1 nM, single replicate, in U/L",14.72 and 16.43 and 21.41 and 17.57 and 17.37 and 21.95
same,medium TRACP 5b activity at day 7,"[3]; 1 nM, Mean of 6 replicates, in U/L",8.27
same,medium TRACP 5b activity at day 7,"[3]; 1 nM, single replicate",9.20 (2×) and 8.25 and 7.59 and 7.52 and 7.84
same,medium TRACP 5b activity at day 7,"[3]; 10 nM, Mean of 6 replicates, in U/L",2.45
same,medium TRACP 5b activity at day 7,"[3]; 10 nM, single replicate, in U/L",2.88 and 3.02 and 2.34 and 2.15 and 1.93 and 2.41
B1,medium TRACP 5b activity at day 7,"[3]; 100 ng/ml OPG, Mean of 6 replicates, in U/L",8.59
same,medium TRACP 5b activity at day 7,"[3]; 100 ng/ml OPG, single replicate, in U/L",4.46 and 10.67 and 10.53 and 10.19 and 5.70 and 10.00
